The record followed here is US8569324B2, “Potentiator for radiation therapy comprising pyridine derivative as active ingredient” (Taiho Pharmaceutical Co., Ltd., priority 2005, dated 2013).

In data set [1] the test system is human lung cancer LC-11 strain. Nature of the data set: Comparative Example 1: radiotherapy enhancing effect of cisplatin on human lung cancer LC-11 strain transplanted into nude mice. It counts as in vivo, BALB/cA-nu mouse. As for the experimental part: (a) Preparation of test solution I: The cisplatin solution (0.5 mg/mL) available from Bristol-Myers Squibb Company was used as it was. 0.1 mL per mouse body weight 10 g was administered for the dose of cisplatin 5 mg/kg, and […] per mouse body weight 10 g was administered for the dose of 7.5 mg/kg. (b) Method for radiation (X-ray) irradiation: Local irradiation was performed on a human tumor strain transplanted into the right femoral region of the mouse using MBR-1505R Type 2 X-ray Irradiation System of Hitachi Medical Corporation under an irradiation condition (irradiation position) so that exposure per mouse should be 2 Gy or 5 Gy. To prevent systemic irradiation, mice were placed in a storage box made of lead so that only their right leg should be exposed to radiation. (c) Test: The human lung cancer LC-11 strain subcutaneously transplanted into the back of a BALB/cA-nu mouse and grown beforehand were removed, cut into small fragments of about 2×2 mm^2 with scissors in physiological saline, and subcutaneously transplanted into the right femoral region of 5 to 6-week-old mice of the same strain with a transplantation needle. The mice were bred for at least 1 to 2 weeks and divided into the control group, the radiation alone group, the drug alone group, and the drug plus radiation group, so that the tumor volume and standard deviation (S.D.) in each group (n=6 per group) should be as uniform as possible. Then, drug administration and X-ray irradiation were initiated. For the drug treatment group, 0.1 mL per body weight 10 g of a cisplatin solution for the dose of 5 mg/kg or […] per body weight 10 g of this solution for the dose of 7.5 mg/kg was administered into the caudal vein on day 1. The radiation group was irradiated with 2 Gy of X-ray in the above-described manner on day 1, at the start of the test, and on day 8. For tumor-bearing mice in the control group (non-radiation/non-drug treatment group) and the radiation alone group, physiological saline was administered into the caudal vein on day 1. By using the above-mentioned numerical formula 1, the tumor volume of each mouse in each group was obtained prior to the start of treatment experiment, on days 3, 5, 8 (1 week later) and 11 during the treatment period, and days 15 (2 weeks later), 18, 22 (3 weeks later), 25, and 29 (4 weeks later) after completion of treatment. A relative tumor volume (RTV) to the tumor volume at the start of the test was obtained for each mouse. Then, the mean tumor growth inhibition rate (IR; %) in each treatment group based on the control group was obtained by using the above-mentioned numerical formula 2 on days 15, at the end of the treatment period, and 29, at 4 weeks later, and shown in Table 3.

In data set [2] the test system is human lung cancer strain (LC-11). Briefly: Test Example 2: radiotherapy enhancing effect of CNDP on human lung cancer strain LC-11 transplanted into nude mice. It counts as in vivo, BALB/cA-nu mouse. As for the experimental part:
(a) Preparation of test solution: 3-Cyano-2,6-dihydroxypyridine (CNDP) was suspended in a 0.5% (W/V) hydroxypropylmethylcellulose (HPMC) solution at concentrations of 2.5 and 5.0 mg/mL, and the suspension was stirred with a stirrer at room temperature for about 10 minutes and ultrasonicated for about 5 minutes with ice cooling to obtain a drug solution of 25 or 50 mg/kg/day as CNDP. (b) Method for radiation (X-ray) irradiation: Local irradiation was performed on a human tumor strain transplanted into the right femoral region of the mouse using MBR-1505R Type 2 X-ray Irradiation System of Hitachi Medical Corporation under an irradiation condition (irradiation position) so that exposure per mouse should be 2 Gy or 5 Gy. To prevent systemic irradiation, mice were placed in a storage box made of lead so that only their right leg should be exposed to radiation. (c) Test: The human lung cancer strain (LC-11) subcutaneously transplanted into the back of a BALB/cA-nu mouse and grown beforehand were removed, cut into small fragments of about 2×2 mm^2 with scissors in physiological saline, and subcutaneously transplanted into the right femoral region of 5 to 6-week-old mice of the same strain with a transplantation needle. The mice were bred for at least 1 to 2 weeks and divided into the control group, the radiation alone group, the drug alone group, and the drug plus radiation group, so that the tumor volume and standard deviation (S.D.) in each group (n=6 per group) should be as uniform as possible. Then, drug administration and X-ray irradiation were initiated. The drug treatment group was orally administered with 0.1 mL of the above-described 5 mg/mL CNDP drug solution per body weight 10 g once daily for 14 consecutive days using a sonde for oral administration. The radiation group was irradiated with 2 Gy or 5 Gy of X-ray within about 1 hour after administration of the CNDP drug solution in the above-described manner on day 1, at the start of the test, and on day 8. Tumor-bearing mice in the control group (non-radiation/non-drug treatment group) and the radiation alone group were orally administered with […] solution alone in the same manner for 14 consecutive days.
By using the above-mentioned numerical formula 1, the tumor volume of each mouse in each group was obtained prior to the start of treatment experiment, on days 3, 5, 8, (1 week later) and 11 during the treatment period, and day 15 (2 weeks later) after completion of treatment. A relative tumor volume (RTV) to the tumor volume at the start of the test was obtained for each mouse (FIG. 1).

Regarding `[NH2][Pt]([NH2])([Cl])[Cl]` [CDDP, cisplatin], the “IR (%) Day 15” value in data set [1] (CDDP 5.0 mg/kg caudal vein on day 1 + X-ray 2 Gy on days 1 and 8, Day 15) is reported as 53.8%; in data set [1] (CDDP 5.0 mg/kg caudal vein on day 1, no X-ray, Day 15) it was 39.9%; in data set [1] (CDDP 7.5 mg/kg caudal vein on day 1 + X-ray 2 Gy on days 1 and 8, Day 15), 54.6%; in data set [1] (CDDP 7.5 mg/kg caudal vein on day 1, no X-ray, Day 15), 55.8%. The “IR (%) Day 29” value in data set [1] (CDDP 5.0 mg/kg caudal vein on day 1 + X-ray 2 Gy on days 1 and 8, Day 29) is 46.8%; in data set [1] (CDDP 5.0 mg/kg caudal vein on day 1, no X-ray, Day 29), 45.6%; in data set [1] (CDDP 7.5 mg/kg caudal vein on day 1 + X-ray 2 Gy on days 1 and 8, Day 29), 66.8%; in data set [1] (CDDP 7.5 mg/kg caudal vein on day 1, no X-ray, Day 29) it was 60.2%. The “enhancement of antitumor effects by combination compared with CDDP alone” value in data set [1] (CDDP 5 mg/kg or 7.5 mg/kg and 2-Gy X-ray irradiation) was “did not significantly enhance antitumor effects”. For the same compound, in data set [1] (series of examinations using human lung cancer LC-11 strain), the radiotherapy enhancing effect entry is “very weak”.
Turning to `N#Cc1ccc(O)nc1O` [CNDP, 3-cyano-2,6-dihydroxypyridine], the “Tumor growth inhibition rate (IR) (%) Day 11” value in data set [2] (CNDP 25 mg/kg oral once daily + X-ray 2 Gy on days 1 and 8, Day 11) was 44.7%; in data set [2] (CNDP 50 mg/kg oral once daily 14 days, X-ray 0 Gy, Day 11), 1.8%; in data set [2] (CNDP 50 mg/kg oral once daily + X-ray 2 Gy on days 1 and 8, Day 11), 44.4%. Moreover, the “Tumor growth inhibition rate IR(%) Day 15” value in data set [2] (CNDP 25 mg/kg oral once daily + X-ray 2 Gy on days 1 and 8, Day 15) amounted to 54.6%; in data set [2] (CNDP 50 mg/kg oral once daily 14 days, X-ray 0 Gy, Day 15) it was 8.2%; in data set [2] (CNDP 50 mg/kg oral once daily + X-ray 2 Gy on days 1 and 8, Day 15), 60.4%. The “enhancement of the antitumor effect of X-ray” value in data set [2] (CNDP 25 and 50 mg/kg with 2-Gy X-ray irradiation in combination) is “significantly increased the antitumor effect of 2-Gy X-ray”. Besides, in data set [2] (CNDP alone, high dose of 50 mg/kg), the “antitumor effect of drug alone” value is “hardly showed any antitumor effect”. The “serious adverse drug reactions (body weight loss, skin disorders)” value in data set [2] (mice receiving CNDP and X-ray in combination) is “no serious adverse drug reactions such as body weight loss and skin disorders were observed”.
